Laboratory results reported in patent US10487045B2, “Adamantane derivative and use thereof” (TOHOKU UNIVERSITY, priority 2016, dated 2019).

Tests used:
Kir6.1 channel = biological target: T1, Kir6.1 channel (Mus musculus, UniProt P97794); experiment: Patch-clamp measurement of outward potassium current in Kir6.1 channel-overexpressing cells; format: cell-based; conditions: 10 nM TP-014, Test Example 15 (Kir6.1 channel)
T1 construct: expressed in transfected cells; host or cells: Neuro2A (N2A) cells, transient transfection with pcDNA3.1-Kir6.1 (gift of Prof. Toru Ishizuka, Tohoku University)
T1 sequence (P97794 1-424): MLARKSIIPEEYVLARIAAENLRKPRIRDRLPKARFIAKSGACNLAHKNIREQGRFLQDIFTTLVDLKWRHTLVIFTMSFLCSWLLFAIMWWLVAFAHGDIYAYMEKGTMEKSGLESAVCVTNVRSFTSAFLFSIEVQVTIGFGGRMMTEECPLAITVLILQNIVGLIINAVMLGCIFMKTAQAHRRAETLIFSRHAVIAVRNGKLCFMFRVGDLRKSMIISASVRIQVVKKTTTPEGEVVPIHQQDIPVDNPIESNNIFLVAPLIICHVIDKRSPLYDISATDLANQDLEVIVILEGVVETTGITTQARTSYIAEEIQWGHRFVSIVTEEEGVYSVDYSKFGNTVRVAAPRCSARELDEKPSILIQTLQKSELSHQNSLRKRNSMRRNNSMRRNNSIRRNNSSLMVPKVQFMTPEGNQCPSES
Procedure: A plasmid vector having cDNA of Kir6.1 channel inserted therein: pcDNA3.1-Kir6.1, was obtained from professor Toru Ishizuka of Graduate School of Life Sciences, Tohoku University. N2A cells overexpressing Kir6.1 channel were obtained in the same manner as in “preparation of N2A cells overexpressing Kir6.2 channel” of Test Example 1 except that the above plasmid was used.
Using Kir6.1 channel-overexpressing cells obtained, potassium current flowing outside from cells was measured by the ordinary patch-clamp method. ATP-sensitive potassium channel (Kir6.1 channel) was localized in the cell membrane of the nerve cells. If the channel is inhibited and clogged, the threshold of the nerve cell membrane rises to produce the analogous state as where an action potential is temporarily generated, with the result that potassium current flows out from cells outside and, in place, calcium current flows into the cells from outside. […] This was confirmed by applying immunoblotting (the same conditions as in Test Example 1 were employed except that anti-Kir6.1 channel antibody, n=5) with an anti-Kir6.1 channel antibody (prepared based on an ordinary method) to Kir6.1 channel-overexpressing cells (prepared by the aforementioned method).

APP23 mice = experiment: Aβ aggregation in brain slices, staining with 6E10 and thioflavin; format: in vivo; conditions: APP23 mice (14 months old), chronic treatment, brain slice sections
Description: The hypothesis that amyloid-β (Aβ) is a cause of Alzheimer's disease has now still important. AP aggregation, which occurs in APP23 mice (14 months old) was confirmed by immunostaining. The brains of a WT (control mouse) and APP23 mouse were cut into slice sections of 50 micrometers in thickness. The slice sections were stained with 6E10 (Aβ antibody, manufactured by Abeam) and thioflavin. The conditions other than the above were the same as in the ordinary immunostaining method. […] In contrast, aggregation was not virtually observed in the hippocampus (CA1). Aβ aggregation was inhibited by TP-014 chronic treatment.

O=C(N[C@@H](c1ccccc1)[C@H]1[C@H]2C[C@@H]3C[C@](Cl)(C2)C[C@@]1(OC(=O)C(F)(F)F)C3)C(F)(F)F [TP-014, (1S,2R,3S,5S,7S)-5-chloro-2-((R)-phenyl(2,2,2-trifluoroacetamido)methyl)adamantan-1-yl 2,2,2-trifluoroacetate]
outward potassium current (Kir6.1 channel): suppressed
Aβ aggregation (APP23 mice): inhibited
